In patent publication US8877748B2, “Heterocyclic fused anthraquinone derivatives, manufacturing method and pharmaceutical composition using thereof” (National Defense Medical Center, priority 2012, dated 2014):

Legend:
[1] = tested on: HL-60, TB; assay: NCI one-dose screening, leukemia HL-60, TB; assay type: cell-based, human; details: 10 μM
[2] = tested on: MOLT-4; assay: NCI one-dose screening, leukemia MOLT-4; assay type: cell-based, human; details: 10 μM
[3] = tested on: SR; assay: NCI one-dose screening, leukemia SR; assay type: cell-based, human; details: 10 μM
[4] = tested on: PRMI-8226 cell line; assay: NCI one-dose screening, leukemia PRMI-8226; assay type: cell-based, human; details: 10 μM
[5] = tested on: K562cell line; assay: NCI one-dose screening, leukemia K562; assay type: cell-based, human; details: 10 μM
[6] = tested on: EKVX; assay: NCI one-dose screening, non-small cell lung cancer EKVX; assay type: cell-based, human; details: 10 μM
[7] = tested on: HOP-62; assay: NCI one-dose screening, non-small cell lung cancer HOP-62; assay type: cell-based, human; details: 10 μM
[8] = tested on: HOP-92; assay: NCI one-dose screening, non-small cell lung cancer HOP-92; assay type: cell-based, human; details: 10 μM
[9] = tested on: NCI-H226; assay: NCI one-dose screening, non-small cell lung cancer NCI-H226; assay type: cell-based, human; details: 10 μM
[10] = tested on: NCI-H23; assay: NCI one-dose screening, non-small cell lung cancer NCI-H23; assay type: cell-based, human; details: 10 μM
[11] = tested on: NCI-H460; assay: NCI one-dose screening, non-small cell lung cancer NCI-H460; assay type: cell-based, human; details: 10 μM
[12] = tested on: NCI-H522; assay: NCI one-dose screening, non-small cell lung cancer NCI-H522; assay type: cell-based, human; details: 10 μM
[13] = tested on: A549/ATCC; assay: NCI one-dose screening, non-small cell lung cancer A549/ATCC; assay type: cell-based, human; details: 10 μM
[14] = tested on: COLO 205; assay: NCI one-dose screening, colon cancer COLO 205; assay type: cell-based, human; details: 10 μM
[15] = tested on: HCC-2998; assay: NCI one-dose screening, colon cancer HCC-2998; assay type: cell-based, human; details: 10 μM
[16] = tested on: HCT-116; assay: NCI one-dose screening, colon cancer HCT-116; assay type: cell-based, human; details: 10 μM
[17] = tested on: HCT-15; assay: NCI one-dose screening, colon cancer HCT-15; assay type: cell-based, human; details: 10 μM
[18] = tested on: KM12; assay: NCI one-dose screening, colon cancer KM12; assay type: cell-based, human; details: 10 μM
[19] = tested on: HT29; assay: NCI one-dose screening, colon cancer HT29; assay type: cell-based, human; details: 10 μM
[20] = tested on: SF-268; assay: NCI one-dose screening, CNS cancer SF-268; assay type: cell-based, human; details: 10 μM
[21] = tested on: SF-295; assay: NCI one-dose screening, CNS cancer SF-295; assay type: cell-based, human; details: 10 μM
[22] = tested on: SF-539; assay: NCI one-dose screening, CNS cancer SF-539; assay type: cell-based, human; details: 10 μM
[23] = tested on: SNB-19; assay: NCI one-dose screening, CNS cancer SNB-19; assay type: cell-based, human; details: 10 μM
[24] = tested on: SNB-75; assay: NCI one-dose screening, CNS cancer SNB-75; assay type: cell-based, human; details: 10 μM
[25] = tested on: U251; assay: NCI one-dose screening, CNS cancer U251; assay type: cell-based, human; details: 10 μM
[26] = tested on: LOX IMVI; assay: NCI one-dose screening, melanoma LOX IMVI; assay type: cell-based, human; details: 10 μM
[27] = tested on: MALME-3M; assay: NCI one-dose screening, melanoma MALME-3M; assay type: cell-based, human; details: 10 μM
[28] = tested on: M14; assay: NCI one-dose screening, melanoma M14; assay type: cell-based, human; details: 10 μM
[29] = tested on: UACC-62; assay: NCI one-dose screening, melanoma UACC-62; assay type: cell-based, human; details: 10 μM
[30] = tested on: UACC-257; assay: NCI one-dose screening, melanoma UACC-257; assay type: cell-based, human; details: 10 μM
[31] = tested on: SK-MEL-2; assay: NCI one-dose screening, melanoma SK-MEL-2; assay type: cell-based, human; details: 10 μM
[32] = tested on: SK-MEL-28; assay: NCI one-dose screening, melanoma SK-MEL-28; assay type: cell-based, human; details: 10 μM
[33] = tested on: SK-MEL-5; assay: NCI one-dose screening, melanoma SK-MEL-5; assay type: cell-based, human; details: 10 μM
[34] = tested on: IGROV1; assay: NCI one-dose screening, ovarian cancer IGROV1; assay type: cell-based, human; details: 10 μM
[35] = tested on: OVCAR-3; assay: NCI one-dose screening, ovarian cancer OVCAR-3; assay type: cell-based, human; details: 10 μM
[36] = tested on: OVCAR-5; assay: NCI one-dose screening, ovarian cancer OVCAR-5; assay type: cell-based, human; details: 10 μM
[37] = tested on: OVCAR-8; assay: NCI one-dose screening, ovarian cancer OVCAR-8; assay type: cell-based, human; details: 10 μM
[38] = tested on: SK-OV-3; assay: NCI one-dose screening, ovarian cancer SK-OV-3; assay type: cell-based, human; details: 10 μM
[39] = tested on: 786-O; assay: NCI one-dose screening, renal cancer 786-O; assay type: cell-based, human; details: 10 μM
[40] = tested on: CAKI-1; assay: NCI one-dose screening, renal cancer CAKI-1; assay type: cell-based, human; details: 10 μM
[41] = NCI one-dose screening, renal cancer A489; assay type: cell-based, human; details: 10 μM
[42] = tested on: ACHN; assay: NCI one-dose screening, renal cancer ACHN; assay type: cell-based, human; details: 10 μM
[43] = tested on: SN12C; assay: NCI one-dose screening, renal cancer SN12C; assay type: cell-based, human; details: 10 μM
[44] = tested on: TK-10; assay: NCI one-dose screening, renal cancer TK-10; assay type: cell-based, human; details: 10 μM
[45] = tested on: UO-31; assay: NCI one-dose screening, renal cancer UO-31; assay type: cell-based, human; details: 10 μM
[46] = tested on: RXF, 393; assay: NCI one-dose screening, renal cancer RXF, 393; assay type: cell-based, human; details: 10 μM
[47] = tested on: DU145; assay: NCI one-dose screening, prostate cancer DU145; assay type: cell-based, human; details: 10 μM
[48] = tested on: PC-3; assay: NCI one-dose screening, prostate cancer PC-3; assay type: cell-based, human; details: 10 μM
[49] = tested on: MCF7; assay: NCI one-dose screening, breast cancer MCF7; assay type: cell-based, human; details: 10 μM
[50] = tested on: MDA-MB-231/ATCC; assay: NCI one-dose screening, breast cancer MDA-MB-231/ATCC; assay type: cell-based, human; details: 10 μM
[51] = tested on: MDA-MB-468; assay: NCI one-dose screening, breast cancer MDA-MB-468; assay type: cell-based, human; details: 10 μM
[52] = tested on: NCl/ADR-RES; assay: NCI one-dose screening, breast cancer NCl/ADR-RES; assay type: cell-based, human; details: 10 μM; listed under Ovarian cancer
[53] = tested on: BT-549; assay: NCI one-dose screening, breast cancer BT-549; assay type: cell-based, human; details: 10 μM
[54] = tested on: T-47D; assay: NCI one-dose screening, breast cancer T-47D; assay type: cell-based, human; details: 10 μM
[55] = tested on: MDA, -MB-435; assay: NCI one-dose screening, breast cancer MDA, -MB-435; assay type: cell-based, human; details: 10 μM; listed under Melanoma
[56] = tested on: human tumor cell lines; assay: NCI one-dose screening, Mean / Delta / Range of growth percent over all tested cell lines; assay type: cell-based; details: 10 μM

O=C1c2ccccc2C(=O)c2c1cc(Sc1ccccn1)c1nsnc21 [C58, 4-(pyridin-2-yl-thio)anthra[2,1-c][1,2,5] thia-diazole-6,11-dione]
Growth Percent HL-60(TB) [1]: −40.05%
Growth Percent MOLT-4 [2]: −41.19%
Growth Percent SR [3]: 0.05%
Growth Percent RPMI-8226 [4]: −4.48%
Growth Percent K562 [5]: −23.03%
Growth Percent EKVX [6]: 97.65%
Growth Percent HOP-62 [7]: 81.44%
Growth Percent HOP-92 [8]: −44.56%
Growth Percent NCI-H226 [9]: 82.43%
Growth Percent NCI-H23 [10]: 4.86%
Growth Percent NCI-H460 [11]: 89.65%
Growth Percent NCI-H522 [12]: 48.83%
Growth Percent A549/ATCC [13]: 96.53%
Growth Percent COLO 205 [14]: 111.91%
Growth Percent HCC-2998 [15]: 106.02%
Growth Percent HCT-116 [16]: −84.89%
Growth Percent HCT-15 [17]: 82.58%
Growth Percent KM12 [18]: 87.50%
Growth Percent HT29 [19]: 108.08%
Growth Percent SF-268 [20]: 37.83%
Growth Percent SF-295 [21]: 78.47%
Growth Percent SF-539 [22]: 93.92%
Growth Percent SNB-19 [23]: 103.09%
Growth Percent SNB-75 [24]: 70.82%
Growth Percent U251 [25]: 43.78%
Growth Percent LOX IMVI [26]: −54.85%
Growth Percent MALME-3M [27]: 18.08%
Growth Percent M14 [28]: 73.52%
Growth Percent UACC-62 [29]: 69.46%
Growth Percent UACC-257 [30]: −10.49%
Growth Percent SK-MEL-2 [31]: 14.45%
Growth Percent SK-MEL-28 [32]: 108.55%
Growth Percent SK-MEL-5 [33]: 61.76%
Growth Percent IGROV1 [34]: −30.93%
Growth Percent OVCAR-3 [35]: −90.05%
Growth Percent OVCAR-5 [36]: 118.16%
Growth Percent OVCAR-8 [37]: 18.67%
Growth Percent SK-OV-3 [38]: 115.11%
Growth Percent 786-0 [39]: −96.82%
Growth Percent CAKI-1 [40]: 59.22%
Growth Percent A498 [41]: 68.74%
Growth Percent ACHN [42]: −71.76%
Growth Percent SN12C [43]: 77.39%
Growth Percent TK-10 [44]: 80.94%
Growth Percent UO-31 [45]: −79.21%
Growth Percent RXF 393 [46]: 60.19%
Growth Percent DU145 [47]: 58.15%
Growth Percent PC-3 [48]: 14.77%
Growth Percent MCF7 [49]: 68.59%
Growth Percent MDA-MB-231/ATCC [50]: 4.55%
Growth Percent MDA-MB-468 [51]: −80.08%
Growth Percent NCI/ADR-RES [52]: 37.25%
Growth Percent BT-549 [53]: 76.58%
Growth Percent T-47D [54]: −52.85%
Growth Percent MDA-MB-435 [55]: −80.50%
Growth Percent Delta ([56]; delta over all cell lines): 125.38%
Growth Percent Mean ([56]; mean over all cell lines): 28.56%
Growth Percent Range ([56]; range over all cell lines): 214.98%
